Where two headings read alike, the source gives them in different places.
What was measured:
[1] = target: Tyk2 (Homo sapiens (Human), UniProt P29597); assay: LanthaScreen JAK biochemical assay (Tyk2)
[2] = system: IL-13 induced STAT6 phosphorylation in BEAS-2B human lung epithelial cells; assay: AlphaScreen cellular JAK potency assay, BEAS-2B
[3] = system: IL-4 induced STAT6 phosphorylation in THP-1 human monocytic cells; assay: Cellular JAK potency assay, THP-1
[4] = target: JAK2 (Homo sapiens (Human), UniProt O60674); assay: LanthaScreen JAK biochemical assay (JAK2)
Sequence of JAK2 (O60674 whole entry): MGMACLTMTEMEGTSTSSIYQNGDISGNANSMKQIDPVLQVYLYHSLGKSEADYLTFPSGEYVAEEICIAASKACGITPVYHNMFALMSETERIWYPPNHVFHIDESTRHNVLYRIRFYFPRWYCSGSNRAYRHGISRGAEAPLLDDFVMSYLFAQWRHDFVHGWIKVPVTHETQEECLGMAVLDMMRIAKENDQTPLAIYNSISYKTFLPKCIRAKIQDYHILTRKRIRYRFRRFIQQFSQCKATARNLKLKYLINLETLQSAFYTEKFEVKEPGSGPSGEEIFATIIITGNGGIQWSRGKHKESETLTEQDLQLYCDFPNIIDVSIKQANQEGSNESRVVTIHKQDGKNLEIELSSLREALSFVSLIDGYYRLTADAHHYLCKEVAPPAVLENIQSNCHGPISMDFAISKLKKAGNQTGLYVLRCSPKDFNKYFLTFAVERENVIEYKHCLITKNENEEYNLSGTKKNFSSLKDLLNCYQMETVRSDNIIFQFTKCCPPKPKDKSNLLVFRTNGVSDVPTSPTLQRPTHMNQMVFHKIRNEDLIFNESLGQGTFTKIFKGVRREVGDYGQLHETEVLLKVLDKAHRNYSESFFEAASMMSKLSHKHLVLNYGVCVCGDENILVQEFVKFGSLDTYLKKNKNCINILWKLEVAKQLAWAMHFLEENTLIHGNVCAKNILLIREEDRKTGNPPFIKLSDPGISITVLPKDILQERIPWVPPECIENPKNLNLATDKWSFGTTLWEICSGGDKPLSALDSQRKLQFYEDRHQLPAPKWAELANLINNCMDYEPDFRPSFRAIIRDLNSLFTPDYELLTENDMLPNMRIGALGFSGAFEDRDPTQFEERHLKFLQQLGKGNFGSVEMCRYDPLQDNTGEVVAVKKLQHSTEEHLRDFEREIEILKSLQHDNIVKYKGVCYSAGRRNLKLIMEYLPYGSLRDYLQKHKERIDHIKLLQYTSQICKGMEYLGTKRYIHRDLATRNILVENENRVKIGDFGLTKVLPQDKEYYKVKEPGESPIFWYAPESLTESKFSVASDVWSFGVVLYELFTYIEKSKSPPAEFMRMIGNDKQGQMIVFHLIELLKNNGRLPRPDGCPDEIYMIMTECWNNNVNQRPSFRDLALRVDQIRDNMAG

[5] = target: JAK1 (Homo sapiens (Human), UniProt P23458); assay: LanthaScreen JAK biochemical assay (JAK1); conditions: for Ki: read-out: JAK 1 (pKi) (converted)
Sequence of JAK1 (P23458 whole entry): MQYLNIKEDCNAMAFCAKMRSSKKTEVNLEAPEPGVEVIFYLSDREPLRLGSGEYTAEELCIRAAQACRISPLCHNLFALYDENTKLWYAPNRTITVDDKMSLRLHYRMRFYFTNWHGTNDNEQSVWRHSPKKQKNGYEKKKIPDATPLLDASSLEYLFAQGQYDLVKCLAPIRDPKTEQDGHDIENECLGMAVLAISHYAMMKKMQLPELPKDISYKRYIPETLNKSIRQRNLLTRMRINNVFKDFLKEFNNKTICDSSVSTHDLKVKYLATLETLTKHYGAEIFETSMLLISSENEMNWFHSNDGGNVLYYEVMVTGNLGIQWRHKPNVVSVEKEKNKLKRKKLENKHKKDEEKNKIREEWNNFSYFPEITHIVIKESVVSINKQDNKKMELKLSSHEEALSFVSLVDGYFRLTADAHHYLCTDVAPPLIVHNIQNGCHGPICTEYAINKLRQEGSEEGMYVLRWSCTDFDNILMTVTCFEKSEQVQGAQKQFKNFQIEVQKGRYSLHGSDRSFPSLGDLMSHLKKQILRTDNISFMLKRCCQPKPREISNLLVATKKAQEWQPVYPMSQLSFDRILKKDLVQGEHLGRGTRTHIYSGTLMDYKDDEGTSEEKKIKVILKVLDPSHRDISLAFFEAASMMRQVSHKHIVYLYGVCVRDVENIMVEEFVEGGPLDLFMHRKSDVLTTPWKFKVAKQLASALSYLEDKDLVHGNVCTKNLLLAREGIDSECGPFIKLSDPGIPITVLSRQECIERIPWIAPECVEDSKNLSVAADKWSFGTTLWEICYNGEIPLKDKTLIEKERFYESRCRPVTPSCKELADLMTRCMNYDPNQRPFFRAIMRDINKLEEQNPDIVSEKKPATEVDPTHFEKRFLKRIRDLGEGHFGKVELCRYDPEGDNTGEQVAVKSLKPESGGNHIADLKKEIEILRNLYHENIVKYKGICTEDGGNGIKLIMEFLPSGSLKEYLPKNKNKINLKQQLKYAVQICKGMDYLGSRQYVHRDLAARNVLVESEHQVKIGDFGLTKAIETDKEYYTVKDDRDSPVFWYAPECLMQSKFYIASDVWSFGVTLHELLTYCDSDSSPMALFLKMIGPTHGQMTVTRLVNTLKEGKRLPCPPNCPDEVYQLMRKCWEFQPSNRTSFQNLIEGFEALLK

[6] = read-out: Tyk 2 (pKi) (converted)
[7] = Homo sapiens, BEAS-2B, read-out: BEAS2B pIC50 (converted)
[8] = Homo sapiens, THP-1, read-out: THP-1 IL4 pIC50 (converted)
[9] = IL-13 induced STAT6 phosphorylation, BEAS-2B cells
[10] = BEAS-2B cells, IL-13 induced STAT6 phosphorylation
[11] = THP-1 cells, IL-4 induced STAT6 phosphorylation
[12] = IL-4 induced STAT6 phosphorylation, THP-1 cells

Sequence of Tyk2 (P29597 whole entry): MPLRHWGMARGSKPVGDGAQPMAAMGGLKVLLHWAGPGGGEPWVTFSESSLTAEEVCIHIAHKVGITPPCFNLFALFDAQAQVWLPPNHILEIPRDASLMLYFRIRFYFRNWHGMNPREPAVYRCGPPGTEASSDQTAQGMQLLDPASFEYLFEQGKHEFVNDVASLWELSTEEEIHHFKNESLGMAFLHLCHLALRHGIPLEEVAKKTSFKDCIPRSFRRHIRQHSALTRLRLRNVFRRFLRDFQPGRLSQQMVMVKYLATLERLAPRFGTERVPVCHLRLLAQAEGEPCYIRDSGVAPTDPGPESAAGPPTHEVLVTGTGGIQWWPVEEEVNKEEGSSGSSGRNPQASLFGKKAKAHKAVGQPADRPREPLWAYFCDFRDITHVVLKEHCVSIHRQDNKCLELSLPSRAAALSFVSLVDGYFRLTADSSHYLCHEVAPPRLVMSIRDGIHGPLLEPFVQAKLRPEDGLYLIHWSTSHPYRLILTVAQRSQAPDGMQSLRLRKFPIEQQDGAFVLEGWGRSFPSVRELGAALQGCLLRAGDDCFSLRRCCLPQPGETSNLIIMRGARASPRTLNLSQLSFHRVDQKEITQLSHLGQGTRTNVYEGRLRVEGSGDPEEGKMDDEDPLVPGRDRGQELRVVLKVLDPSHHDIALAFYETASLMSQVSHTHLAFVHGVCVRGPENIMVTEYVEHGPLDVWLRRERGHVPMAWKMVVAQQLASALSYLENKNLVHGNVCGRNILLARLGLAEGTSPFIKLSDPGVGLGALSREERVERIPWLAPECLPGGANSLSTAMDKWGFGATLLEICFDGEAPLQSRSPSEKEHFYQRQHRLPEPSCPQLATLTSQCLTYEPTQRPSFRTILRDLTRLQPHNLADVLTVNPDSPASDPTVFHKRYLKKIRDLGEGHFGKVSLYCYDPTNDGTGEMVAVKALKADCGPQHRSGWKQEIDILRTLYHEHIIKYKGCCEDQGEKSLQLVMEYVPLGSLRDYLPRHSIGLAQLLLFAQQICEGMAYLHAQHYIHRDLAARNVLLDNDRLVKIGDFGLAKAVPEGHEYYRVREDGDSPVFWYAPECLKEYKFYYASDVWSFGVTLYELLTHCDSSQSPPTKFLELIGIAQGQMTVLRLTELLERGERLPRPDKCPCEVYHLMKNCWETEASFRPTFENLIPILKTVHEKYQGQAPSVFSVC

Structure (SMILES)	Ki [1, 6] [nM]	IC50 [2, 7] [nM]	IC50 [3, 8] [nM]	Ki [5] [nM]	JAK 2 (pKi) [4]	JAK 1 (pKi) [5]	Tyk 2 (pKi) [1]	other results
Cc1cc(Nc2cc3ncccc3c(N[C@@H]3C[C@H]4CCC[C@@H](C3)N4S(=O)(=O)c3cncc(F)c3)n2)n[nH]1 [Example 14, N^5-((1R,3s,5S)-9-((5-fluoropyridin-3-yl)sulfonyl)-9-azabicyclo[3.3.1]nonan-3-yl)-N^7-(5-methyl-1H-pyrazol-3-yl)-1,6-naphthyridine-5,7-diamine]	0.1 to 1	< 31.6	< 31.6					
COc1ccc2c(N[C@@H]3C[C@H]4CC[C@@H](C3)N4S(C)(=O)=O)nc(Nc3cc(C)[nH]n3)cc2n1 [Example 5-9]	0.1 to 1	< 31.6	< 31.6	0.1 to 1				Ki ([4]; read-out: JAK 2 (pKi) (converted)): 0.1 to 1 nM
Cc1cc(Nc2cc3ncccc3c(N[C@@H]3C[C@H]4CCC[C@@H](C3)N4C(=O)C(C)CC#N)n2)n[nH]1 (stereo partly shown) [Example 2-29]					B (B represents a pKi value between 9 and 10 (Ki between 1 nM and 0.1 nM))	B (B represents a pKi value between 9 and 10 (Ki between 1 nM and 0.1 nM))	B (B represents a pKi value between 9 and 10 (Ki between 1 nM and 0.1 nM))	BEAS2B pIC50 [2, 9]: B (B represents a pEC50 value between 6.7 and 7.5 (EC50 between 200 nM and 32 nM))
Cc1cc(Nc2cc3ncccc3c(N[C@@H]3C[C@H]4CCC[C@@H](C3)N4C(=O)CCCC#N)n2)n[nH]1 [Example 2-27]					B (B represents a pKi value between 9 and 10 (Ki between 1 nM and 0.1 nM))	B (B represents a pKi value between 9 and 10 (Ki between 1 nM and 0.1 nM))	B (B represents a pKi value between 9 and 10 (Ki between 1 nM and 0.1 nM))	BEAS2B pIC50 [2, 9]: B (B represents a pEC50 value between 6.7 and 7.5 (EC50 between 200 nM and 32 nM))
COc1cnc2cc(Nc3cc(C)[nH]n3)nc(N[C@@H]3C[C@H]4CCC[C@@H](C3)N4S(C)(=O)=O)c2c1 [Example 6-29]					B (B represents a pKi value between 9 and 10 (Ki between 1 nM and 0.1 nM))	B (B represents a pKi value between 9 and 10 (Ki between 1 nM and 0.1 nM))	B (B represents a pKi value between 9 and 10 (Ki between 1 nM and 0.1 nM))	BEAS2B pIC50 [2, 10]: A (A represents a pEC50 value≥7.5 (EC50≤32 nM)); THP-1 IL4 pIC50 [3, 11]: A (A represents a pEC50 value≥7.5 (EC50≤32 nM))
Cc1cc(Nc2cc3ncc(S(C)(=O)=O)cc3c(N[C@@H]3C[C@H]4CC[C@@H](C3)N4CCC(F)(F)F)n2)n[nH]1 [Example 6-56]					A (A represents a pKi value≥10 (Ki≤0.1 nM))	B (B represents a pKi value between 9 and 10 (Ki between 1 nM and 0.1 nM))	B (B represents a pKi value between 9 and 10 (Ki between 1 nM and 0.1 nM))	BEAS2B pIC50 [2, 10]: B (B represents a pEC50 value between 6.7 and 7.5 (EC50 between 200 nM and 32 nM)); THP-1 IL4 pIC50 [3, 11]: B (B represents a pEC50 value between 6.7 and 7.5 (EC50 between 200 nM and 32 nM))
Cc1cc(Nc2cc3ncccc3c(N[C@@H]3C[C@H]4CCC[C@@H](C3)N4Cc3ccnc(C#N)c3)n2)n[nH]1 [Example 1-55]							C (C represents a pKi value between 7 and 9 (Ki between 100 nM and 1 nM))	BEAS2B pIC50 [2, 9]: B (B represents a pEC50 value between 6.7 and 7.5 (EC50 between 200 nM and 32 nM))
Cc1cnc2cc(Nc3cc(C)[nH]n3)nc(N[C@@H]3C[C@H]4CC[C@@H](C3)N4S(=O)(=O)N3CC(C#N)C3)c2c1 [Example 6-4]	0.1 to 1	< 31.6	< 31.6	0.1 to 1				
Cc1cc(Nc2cc3ncccc3c(N[C@@H]3C[C@H]4CC[C@@H](C3)N4C3(CC#N)COC3)n2)n[nH]1 [Example 1-25]		< 31.6	< 31.6	0.1 to 1				Ki [1]: 0.1 to 1 nM
Cc1cc(Nc2cc3ncccc3c(N[C@@H]3C[C@H]4CCC[C@@H](C3)N4C(=O)c3ccc(C#N)nc3)n2)n[nH]1 [Example 2-28]						B (B represents a pKi value between 9 and 10 (Ki between 1 nM and 0.1 nM))	B (B represents a pKi value between 9 and 10 (Ki between 1 nM and 0.1 nM))	BEAS2B pIC50 [2, 9]: C (C represents a pEC50 value<6.7 (EC50>200 nM))
Cc1cc(Nc2cc3ncccc3c(N[C@@H]3C[C@H]4CCC[C@@H](C3)N4S(=O)(=O)CC(C)C)n2)n[nH]1 [Example 4-17]					B (B represents a pKi value between 9 and 10 (Ki between 1 nM and 0.1 nM))	B (B represents a pKi value between 9 and 10 (Ki between 1 nM and 0.1 nM))	B (B represents a pKi value between 9 and 10 (Ki between 1 nM and 0.1 nM))	THP-1 IL4 pIC50 [3, 12]: A (A represents a pEC50 value≥7.5 (EC50≤32 nM))
COCCCN1[C@@H]2CC[C@H]1C[C@H](Nc1nc(Nc3cc(C)[nH]n3)cc3ncccc13)C2 [Example 1-15]					C (C represents a pKi value between 7 and 9 (Ki between 100 nM and 1 nM))	C (C represents a pKi value between 7 and 9 (Ki between 100 nM and 1 nM))	C (C represents a pKi value between 7 and 9 (Ki between 100 nM and 1 nM))	THP-1 IL4 pIC50 [3, 12]: C (C represents a pEC50 value<6.7 (EC50>200 nM))
Cc1cc(Nc2cc3nc(CN4CCOCC4)ccc3c(N[C@@H]3C[C@H]4CCC[C@@H](C3)N4CCC#N)n2)n[nH]1 [Example 5-26]					A (A represents a pKi value≥10 (Ki≤0.1 nM))	A (A represents a pKi value≥10 (Ki≤0.1 nM))	B (B represents a pKi value between 9 and 10 (Ki between 1 nM and 0.1 nM))	THP-1 IL4 pIC50 [3, 12]: A (A represents a pEC50 value≥7.5 (EC50≤32 nM))
COc1cnc2cc(Nc3cc(C)[nH]n3)nc(N[C@@H]3C[C@H]4CC[C@@H](C3)N4S(C)(=O)=O)c2c1 [Example 6-18]	0.1 to 1	< 31.6	< 31.6					
COc1cnc2cc(Nc3cc(C)[nH]n3)nc(N[C@@H]3C[C@H]4CC[C@@H](C3)N4S(=O)(=O)N3CC(C#N)C3)c2c1 [Example 6-20]	0.1 to 1	31.6 to 200		0.1 to 1				Ki [4]: 0.1 to 1 nM
COc1cnc2cc(Nc3cc(C)[nH]n3)nc(N[C@@H]3C[C@H]4CC[C@@H](C3)N4S(=O)(=O)CCCC#N)c2c1 [Example 6-21]					B (B represents a pKi value between 9 and 10 (Ki between 1 nM and 0.1 nM))	B (B represents a pKi value between 9 and 10 (Ki between 1 nM and 0.1 nM))	B (B represents a pKi value between 9 and 10 (Ki between 1 nM and 0.1 nM))	BEAS2B pIC50 [2, 10]: B (B represents a pEC50 value between 6.7 and 7.5 (EC50 between 200 nM and 32 nM))
COc1cnc2cc(Nc3cc(C)[nH]n3)nc(N[C@@H]3C[C@H]4CC[C@@H](C3)N4CCC#N)c2c1 [Example 6-11]					B (B represents a pKi value between 9 and 10 (Ki between 1 nM and 0.1 nM))	B (B represents a pKi value between 9 and 10 (Ki between 1 nM and 0.1 nM))	B (B represents a pKi value between 9 and 10 (Ki between 1 nM and 0.1 nM))	THP-1 IL4 pIC50 [3, 11]: A (A represents a pEC50 value≥7.5 (EC50≤32 nM))
Cc1cc(Nc2cc3ncccc3c(N[C@@H]3C[C@H]4CC[C@@H](C3)N4CC3(C#N)CC3)n2)n[nH]1 [Example 1-24]	0.1 to 1	< 31.6	31.6 to 200	0.1 to 1				
COc1cnc2cc(Nc3cc(C)[nH]n3)nc(N[C@@H]3C[C@H]4CC[C@@H](C3)N4S(=O)(=O)CC3(C#N)CC3)c2c1 [Example 6-23]	0.1 to 1	31.6 to 200		0.1 to 1				

— patent US10072026B2, “Crystalline form of 3-((1R,3s,5S)-3-((7-((5-methyl-1H-pyrazol-3-yl)amino)-1,6-naphthyridin-5-yl)amino)-8-azabicyclo[3.2.1]octan-8-yl)propanenitrile” (priority 2015, dated 2018)
